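48-hour exposure; five concentrations; linearly interpolated endpoints. GI50: concentration for 50% inhibition of growth.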 The source made the active and inactive calls. Cut-off read from the data, not from the text of the source: active = GI50 up to about 1.1 µM and inactive = higher.
Columns and labels:
Experiment in all cases: NCI-60 cell line screen, 48 h
DU-145 = test system: DU-145
MDA-N = test system: MDA-N
OVCAR-5 = test system: OVCAR-5
NCI-H23 = test system: NCI-H23
IGROV-1 = test system: IGROV-1
786-0 = test system: 786-0
RXF 393 = test system: RXF 393
Malme-3M = test system: Malme-3M
UO-31 = test system: UO-31
EKVX = test system: EKVX
A549 = test system: A549
NCI-H522 = test system: NCI-H522
M14 = test system: M14
SN12C = test system: SN12C
HCT-116 = test system: HCT-116
OVCAR-4 = test system: OVCAR-4
MOLT-4 = test system: MOLT-4
NCI-H226 = test system: NCI-H226
SK-OV-3 = test system: SK-OV-3
HL-60 = test system: HL-60

Row | Compound | GI50 (DU-145) | GI50 (MDA-N) | GI50 (OVCAR-5) | GI50 (NCI-H23) | GI50 (IGROV-1) | GI50 (786-0) | GI50 (RXF 393) | GI50 (Malme-3M) | GI50 (UO-31) | GI50 (EKVX) | GI50 (A549) | GI50 (NCI-H522) | GI50 (M14) | GI50 (SN12C) | GI50 (HCT-116) | GI50 (OVCAR-4) | GI50 (MOLT-4) | GI50 (NCI-H226) | GI50 (SK-OV-3) | GI50 (HL-60)
1 | Cc1cn(CCCCCCC2=NCCCN2)c(=O)[nH]c1=O | > 100 µM (inactive) | > 100 µM (inactive) | > 100 µM (inactive) | > 100 µM (inactive) | > 100 µM (inactive) | > 100 µM (inactive) | > 100 µM (inactive) | > 100 µM (inactive) | > 100 µM (inactive) | > 100 µM (inactive) | > 100 µM (inactive) | > 100 µM (inactive) | > 100 µM (inactive) | > 100 µM (inactive) | > 100 µM (inactive) | > 100 µM (inactive) | > 100 µM (inactive) | > 100 µM (inactive) | > 100 µM (inactive) | –
2 | Cc1csc(-n2c(C)nc3cc(Cl)ccc3c2=O)n1 | > 100 µM (inactive) | > 100 µM (inactive) | > 100 µM (inactive) | 71.8 µM (inactive) | 33.2 µM (inactive) | > 100 µM (inactive) | > 100 µM (inactive) | – | 58.2 µM (inactive) | 8.02 µM (inactive) | > 100 µM (inactive) | 22.2 µM (inactive) | > 100 µM (inactive) | > 100 µM (inactive) | > 100 µM (inactive) | 45.4 µM (inactive) | 46.7 µM (inactive) | > 100 µM (inactive) | > 100 µM (inactive) | > 100 µM (inactive)
3 | c1ccc(CCNc2ccccn2)nc1 | > 100 µM (inactive) | > 100 µM (inactive) | > 100 µM (inactive) | > 100 µM (inactive) | > 100 µM (inactive) | > 100 µM (inactive) | > 100 µM (inactive) | > 100 µM (inactive) | > 100 µM (inactive) | > 100 µM (inactive) | > 100 µM (inactive) | > 100 µM (inactive) | > 100 µM (inactive) | > 100 µM (inactive) | > 100 µM (inactive) | > 100 µM (inactive) | – | > 100 µM (inactive) | > 100 µM (inactive) | > 100 µM (inactive)
4 | COc1cc(O)c(C(=O)/C=C/c2ccc(O)cc2)cc1Oc1ccc(C(=O)/C=C/c2ccc(O)cc2)c(O)c1 [RHUSCHALCONE IV] | 2.29 µM (inactive) | 3.21 µM (inactive) | 2.69 µM (inactive) | 2.67 µM (inactive) | 1.67 µM (inactive) | 2.23 µM (inactive) | 2.48 µM (inactive) | 2.58 µM (inactive) | 2.56 µM (inactive) | 2.27 µM (inactive) | 2.96 µM (inactive) | 1.94 µM (inactive) | 3.9 µM (inactive) | 2.45 µM (inactive) | 1.8 µM (inactive) | 2.22 µM (inactive) | 3.13 µM (inactive) | – | 2.88 µM (inactive) | 3.65 µM (inactive)
5 | O=C1CC(=O)NC(NN2C(=O)/C(=C/C(=O)c3ccco3)N=C2c2ccccc2)=N1 | > 100 µM (inactive) | 77.3 µM (inactive) | > 100 µM (inactive) | > 100 µM (inactive) | 43.3 µM (inactive) | > 100 µM (inactive) | 66.8 µM (inactive) | 7 µM (inactive) | 57.8 µM (inactive) | – | > 100 µM (inactive) | 17.7 µM (inactive) | 92.3 µM (inactive) | > 100 µM (inactive) | > 100 µM (inactive) | 31 µM (inactive) | 22.9 µM (inactive) | > 100 µM (inactive) | > 100 µM (inactive) | –
6 | COc1cc2c(cc1OC(=O)c1cc3ccccc3[nH]1)N=C[C@@H]1CCCN1C2=O | 0.425 µM (active) | 0.194 µM (active) | 0.255 µM (active) | 0.37 µM (active) | 0.274 µM (active) | 0.261 µM (active) | 0.165 µM (active) | 0.398 µM (active) | 0.129 µM (active) | 0.841 µM (active) | 0.662 µM (active) | 0.157 µM (active) | 0.18 µM (active) | 0.221 µM (active) | 0.41 µM (active) | 0.409 µM (active) | 0.18 µM (active) | 0.809 µM (active) | 1.35 µM (inactive) | –
7 | CSc1cc(Cl)c(C)cc1S(=O)(=O)NC(=O)NNc1cnc2ccccc2n1 | > 100 µM (inactive) | > 100 µM (inactive) | > 100 µM (inactive) | – | > 100 µM (inactive) | > 100 µM (inactive) | > 100 µM (inactive) | > 100 µM (inactive) | – | > 100 µM (inactive) | > 100 µM (inactive) | > 100 µM (inactive) | > 100 µM (inactive) | > 100 µM (inactive) | > 100 µM (inactive) | > 100 µM (inactive) | 17.5 µM (inactive) | > 100 µM (inactive) | > 100 µM (inactive) | –
8 | C/C(=N/O)c1cccc(Nc2nc3ccc(Cl)cc3c3[nH]c4ccccc4c23)c1 | 0.261 µM (active) | 1.71 µM (inactive) | 2.07 µM (inactive) | 1.92 µM (inactive) | 1.5 µM (inactive) | 1.36 µM (inactive) | 1.67 µM (inactive) | – | 2.33 µM (inactive) | – | 1.6 µM (inactive) | 1.12 µM (active) | 1.82 µM (inactive) | 2.51 µM (inactive) | 0.205 µM (active) | 1.9 µM (inactive) | 0.242 µM (active) | 2.69 µM (inactive) | 3.42 µM (inactive) | 3.07 µM (inactive)
9 | COC(=O)Nc1nc2cc(S(=O)(=O)n3nnc4ccccc43)ccc2[nH]1 | > 100 µM (inactive) | > 100 µM (inactive) | > 100 µM (inactive) | 41.7 µM (inactive) | 31.3 µM (inactive) | 40.2 µM (inactive) | 14.6 µM (inactive) | 30.5 µM (inactive) | > 100 µM (inactive) | > 100 µM (inactive) | > 100 µM (inactive) | 36.8 µM (inactive) | > 100 µM (inactive) | > 100 µM (inactive) | 53.8 µM (inactive) | > 100 µM (inactive) | > 100 µM (inactive) | – | 17.1 µM (inactive) | 66.2 µM (inactive)
10 | COC(=O)C1(C(=O)OC)C/C(C)=C(/C)SCCCS1 | > 100 µM (inactive) | > 100 µM (inactive) | > 100 µM (inactive) | > 100 µM (inactive) | > 100 µM (inactive) | > 100 µM (inactive) | > 100 µM (inactive) | > 100 µM (inactive) | > 100 µM (inactive) | > 100 µM (inactive) | > 100 µM (inactive) | > 100 µM (inactive) | > 100 µM (inactive) | 86.3 µM (inactive) | > 100 µM (inactive) | > 100 µM (inactive) | 44.4 µM (inactive) | 79.1 µM (inactive) | > 100 µM (inactive) | –
11 | Cc1cn(C2CC(/[N+]([O-])=N\Nc3ccc([N+](=O)[O-])cc3)C(CO)O2)c(=O)[nH]c1=O (stereo not given) | > 100 µM (inactive) | > 100 µM (inactive) | > 100 µM (inactive) | > 100 µM (inactive) | 22.5 µM (inactive) | > 100 µM (inactive) | > 100 µM (inactive) | > 100 µM (inactive) | > 100 µM (inactive) | > 100 µM (inactive) | > 100 µM (inactive) | > 100 µM (inactive) | > 100 µM (inactive) | > 100 µM (inactive) | > 100 µM (inactive) | – | 22.2 µM (inactive) | > 100 µM (inactive) | > 100 µM (inactive) | > 100 µM (inactive)

Reference: ChEMBL document CHEMBL1201862, “PubChem BioAssay data set” (2004)
